From ChEMBL document CHEMBL6134852, “Electrostatic Anchoring in RNA-Ligand Design─Dissecting the Effects of Positive Charges on Affinity, Selectivity, Binding Kinetics, and Thermodynamics” (J Med Chem, 2025) come the findings set out here.

Test [1] has as its target PreQ1 riboswitch. As to the kind of experiment: Binding affinity to Tte preQ1 riboswitch aptamer assessed as dissociation constant by MST analysis. Format: nucleic-acid assay, Caldanaerobacter subterraneus, subsp. tengcongensis.
Test [2] has as its system PreQ1 riboswitch. As to the kind of experiment: Binding affinity to Tte preQ1 riboswitch aptamer assessed as change in enthalpy by ITC analysis. Format: nucleic-acid assay. The conditions noted are these: Caldanaerobacter subterraneus; subsp. tengcongensis. For orientation: Isothermal titration calorimetry measures the heat released or taken up as one component is titrated into another.

In test [3] the target is PreQ1 riboswitch. The experiment in a line: Binding affinity to Tte preQ1 riboswitch aptamer assessed as dissociation constant by ITC analysis. It is filed as nucleic-acid assay, Caldanaerobacter subterraneus, subsp. tengcongensis.
In test [4] the target is PreQ1 riboswitch. As to the kind of experiment: Binding affinity to SA sensor chip-immobilized Tte preQ1 riboswitch aptamer assessed as dissociation constant by SPR steady-state analysis. Format: nucleic-acid assay, Caldanaerobacter subterraneus, subsp. tengcongensis.
Test [5] deals with PreQ1 riboswitch. The experiment in a line: Binding affinity to Tte preQ1 riboswitch aptamer assessed as binding constant (Koff) by ITC analysis. It is filed as nucleic-acid assay. Conditions: Caldanaerobacter subterraneus; subsp. tengcongensis.
Test [6] deals with PreQ1 riboswitch. As to the kind of experiment: Binding affinity to Tte preQ1 riboswitch assessed as change in Gibb's free energy by ITC analysis. It is filed as nucleic-acid assay. The conditions noted are these: Caldanaerobacter subterraneus; subsp. tengcongensis.
For test [7], the system named is PreQ1 riboswitch. The experiment in a line: Binding affinity to Tte preQ1 riboswitch aptamer assessed as binding constant (Kon) by ITC analysis. The conditions noted are these: Caldanaerobacter subterraneus; subsp. tengcongensis. Format: nucleic-acid assay.
Test [8] concerns PreQ1 riboswitch. As to the kind of experiment: Binding affinity to SA sensor chip-immobilized Tte preQ1 riboswitch aptamer assessed as binding constant (Koff) by SPR analysis. It is filed as nucleic-acid assay. Conditions: Caldanaerobacter subterraneus; subsp. tengcongensis. On the technique in general: In SPR one partner is held on a chip, and binding of the other changes the refractive index at the surface.

Test [9] deals with PreQ1 riboswitch. As to the kind of experiment: Binding affinity to SA sensor chip-immobilized Tte preQ1 riboswitch aptamer assessed as binding constant (Kon) by SPR analysis. Conditions: Caldanaerobacter subterraneus; subsp. tengcongensis. Format: nucleic-acid assay.
Test [10] deals with PreQ1 riboswitch. The experiment in a line: Binding affinity to SA sensor chip-immobilized Tte preQ1 riboswitch aptamer assessed as dissociation constant by SPR analysis. It is filed as nucleic-acid assay, Caldanaerobacter subterraneus, subsp. tengcongensis.
In test [11] the test system is PreQ1 riboswitch. As to the kind of experiment: Binding affinity to Tte preQ1 riboswitch aptamer assessed as change in entropy by ITC analysis. Format: nucleic-acid assay. Conditions: Caldanaerobacter subterraneus; subsp. tengcongensis.
Test [12] concerns Ribozyme. As to the kind of experiment: Binding affinity to Tetrahymena group I ribozyme (unknown origin) assessed as binding constant (Kon). Format: nucleic-acid assay.
The target of test [13] is Ribozyme. The experiment in a line: Binding affinity to Tetrahymena group I ribozyme (unknown origin) assessed as dissociation constant. It is filed as nucleic-acid assay.
For test [14], the system named is Ribozyme. The experiment in a line: Binding affinity to Tetrahymena group I ribozyme (unknown origin) assessed as binding constant (Koff). Format: nucleic-acid assay.
The target in test [15] is Precursor microRNA-372. The experiment in a line: Binding affinity to pre-miRNA-372 beacon (unknown origin) assessed as dissociation constant measured after 4 hrs by fluorescence based analysis. Format: nucleic-acid assay.
Test [16] deals with S-adenosylmethionine-VI riboswitch. The experiment in a line: Binding affinity to Bifidobacterium angulatum SAM-VI riboswitch assessed as assessed as binding constant (Kon) by ITC analysis. Format: nucleic-acid assay.
The target in test [17] is S-adenosylmethionine-VI riboswitch. The experiment in a line: Binding affinity to Bifidobacterium angulatum SAM-VI riboswitch assessed as dissociation constant by ITC analysis. It is filed as nucleic-acid assay.
Test [18] has as its target TAR RNA. The experiment in a line: Binding affinity to Alexa Fluor 488-labeled HIV-1 TAR RNA assessed as dissociation constant by fluorescence based analysis. It is filed as nucleic-acid assay, Human immunodeficiency virus 1.
The target in test [19] is PreQ1 riboswitch. The experiment in a line: Binding affinity to Alexa Fluor 647-labeled Tte preQ1 riboswitch assessed as dissociation constant by fluorescence based analysis. Format: nucleic-acid assay, Caldanaerobacter subterraneus, subsp. tengcongensis.
Test [20] concerns S-adenosylmethionine-VI riboswitch. As to the kind of experiment: Binding affinity to SA sensor chip-immobilized Bifidobacterium angulatum SAM-VI riboswitch aptamer assessed as binding constant (Kon) by SPR analysis. Format: nucleic-acid assay.
Test [21] addresses S-adenosylmethionine-VI riboswitch. As to the kind of experiment: Binding affinity to SA sensor chip-immobilized Bifidobacterium angulatum SAM-VI riboswitch aptamer assessed as dissociation constant by SPR analysis. Format: nucleic-acid assay.
The subject of test [22] is S-adenosylmethionine-VI riboswitch. As to the kind of experiment: Binding affinity to SA sensor chip-immobilized Bifidobacterium angulatum SAM-VI riboswitch aptamer assessed as binding constant (Koff) by SPR analysis. It is filed as nucleic-acid assay.
In test [23] the target is S-adenosylmethionine-VI riboswitch. As to the kind of experiment: Binding affinity to SA sensor chip-immobilized Bifidobacterium angulatum SAM-VI riboswitch aptamer assessed as dissociation constant by SPR steady-state analysis. Format: nucleic-acid assay.

Broadly, the Kd is the free concentration of one partner at which half of the binding sites on the other are occupied at equilibrium, for simple one-to-one binding. The term koff denotes a measure of how fast the partners let go of each other. For `Nc1ncnc2c1ncn2[C@@H]1O[C@H](CNCC[C@H](N)C(=O)O)[C@@H](O)[C@H]1O`, the Kd in test [1] came out at 33.3 µM; in test [3], 3.31 µM; in test [4], 20.7 µM; in test [10], 12.3 µM. In test [2], the deltaH is -22.8 kcal/mol. Also, the K was 4.66 10^-2/s in test [5], 1.54 10^4/M/s in test [7] and 2.94 10^3/Ms in [9]. In addition, the deltaG in [6] was -7.48 kcal/mol. In test [8], the koff turned out to be 0.0361 s⁻¹. Further, in test [11], the -TdeltaS was 15.3 kcal/mol.
With `Nc1nc2c(ncn2[C@@H]2O[C@H](CO)[C@@H](O)[C@H]2O)c(=O)[nH]1` [GUANOSINE], the K in test [12] is 4 10^5/M/min; in test [14], 44 min⁻¹. Besides, in test [13], the Kd came to 110 µM.
Take `NC[C@@H]1O[C@H](O[C@H]2[C@@H](O)[C@H](O[C@@H]3[C@@H](O)[C@H](N)C[C@H](N)[C@H]3O[C@H]3O[C@H](CN)[C@@H](O)[C@H](O)[C@H]3N)O[C@@H]2CO)[C@H](N)[C@@H](O)[C@@H]1O` [FRAMYCETIN]: the Kd in [15] turned out to be 7.4 µM.
Consider `C[S+](CC[C@H](N)C(=O)[O-])C[C@H]1O[C@@H](n2cnc3c(N)ncnc32)[C@H](O)[C@@H]1O` (stereo partly specified) [ADEMETIONINE], for which the Kd in test [1] came to 0.718 µM; in [3], 0.671 µM; in test [17], 0.33 µM; in test [4] it was 4.53 µM; in [10] it was 3.72 µM. Further, the deltaH in test [2] was -14.5 kcal/mol. The K in test [16] was 2.46 10^4/M/s; in [5], 1.42 10^-2/s; in test [7], 2.13 10^4/M/s; in test [9], 2.98 10^3/Ms. In addition, the deltaG in test [6] is -8.44 kcal/mol. The -TdeltaS in test [11] is 6.09 kcal/mol.
With `CC(=O)Nc1nc(-c2cccc(NC(=O)[C@H]3C[C@H](OC(=O)[C@@H](N)CCCN)[C@@H](COC(=O)[C@@H](N)CCCCN)O3)c2)cs1`, the dissociation constant Kd in [18] turned out to be 8 µM.
With `Nc1nc2c(ncn2[C@H]2C[C@H](N)[C@@H](CO)O2)c(=O)[nH]1`, the K is > 2.1 10^7/M/min in test [12] and over 2 min⁻¹ in [14]. In addition, the equilibrium dissociation constant (Kd) in test [13] amounted to 0.094 µM.
With `Nc1ncnc2c1ncn2[C@@H]1O[C@H](CSCC[C@H](N)C(=O)O)[C@@H](O)[C@H]1O` [S-ADENOSYLHOMOCYSTEINE], the equilibrium dissociation constant (Kd) in test [1] was 34.4 µM; in test [3], 14 µM; in [17] it was 10.9 µM; in test [4], 121 µM; in test [10], 150 µM. Moreover, the deltaH in test [2] was -8.27 kcal/mol. Also, the K is 5.5 10^3/M/s in test [16], 4.58 10^-2/s in [5], 3.57 10^3/M/s in test [7] and 3.88 10^2/Ms in [9]. Besides, in test [6], the deltaG was -6.64 kcal/mol. In [8], the koff amounted to 0.054 s⁻¹. The -TdeltaS in test [11] came to 1.63 kcal/mol.
In the case of `NCCOc1ccc2oc3ccccc3c2c1`, the Kd in test [19] came to 0.5 µM.
For the compound `NCCCNC[C@H]1O[C@@H](n2cnc3c(N)ncnc32)[C@H](O)[C@@H]1O`, the dissociation constant Kd amounted to 9.75 µM in test [1]; 1.73 µM in [3]; 3.1 µM in test [21]; 15.9 µM in test [4]; 6.05 µM in test [23]; 4.17 µM in [10]. Moreover, the deltaH in [2] is -20.9 kcal/mol. Further, the K is 1.48 10^4/M/s in test [20]; 2.38 10^-2/s in test [5]; 4.59 10^-2/s in test [22]; 1.36 10^4/M/s in test [7]; 1.28 10^4/Ms in test [9]. Also, in test [6], the deltaG is -7.89 kcal/mol. Moreover, the koff in [8] was 0.0481 s⁻¹. For the same compound, the -TdeltaS in test [11] turned out to be 13 kcal/mol.
With `CC(=O)Nc1csc(-c2cccc(NC(=O)CCc3cn(C[C@H]4O[C@@H](O[C@@H]5[C@@H](O)[C@H](N)C[C@H](N)[C@H]5O[C@H]5O[C@H](CN)[C@@H](O)[C@H](O)[C@H]5N)[C@H](O)[C@@H]4O[C@H]4O[C@@H](CN)[C@@H](O)[C@H](O)[C@H]4N)nn3)c2)n1`, the Kd in test [15] was determined as 0.016 µM.
